PubChem BioAssay AID1996
In brackets after ≈: the same amount, converted by molar mass.

conditions: buffer; pH 7.4; 200.0 µM

SMILES | solubility kinetic [µg/mL]
COc1ccc(OC)c(S(=O)(=O)NC2CC2)c1 | > 38.6
O=[N+]([O-])c1ccccc1S(=O)(=O)Nc1cccc(S(=O)(=O)N2CCCC2)c1 | > 61.7
Cc1ccc2[nH]c3c(NCc4ccccc4)ncnc3c2c1 | 4.4 (≈ 15.3 µM)
COc1ccc(-c2cc(CS(=O)(=O)c3ccccc3)on2)cc1 | 0.7 (≈ 2.13 µM)
Cc1ccc(C(=O)NCCNS(=O)(=O)c2ccccc2)cn1 | > 47.9
O=C1c2ccccc2C(=O)C1c1ccccn1 | 14.2 (≈ 63.6 µM)
COc1ccc(OC)c(N2C(=O)c3cccnc3C2=O)c1 | > 42.6
O=C(O)C1CCC(CNS(=O)(=O)c2ccc(Cl)cc2)CC1 (stereo not given) | 43 (≈ 130 µM)
COc1ccccc1NS(=O)(=O)c1ccc2oc(=S)[nH]c2c1 | > 50.5
O=C(COc1ccccc1Cl)NCCNC(=O)c1cccnc1 | > 50.1
COc1ccc(N2CCCC2=N)c(OC)c1.Cl | > 38.5
COc1ccccc1NS(=O)(=O)c1ccc(C)c(C(=O)N2CCN(c3ccc(O)cc3)CC2)c1.Cl | > 77.7
O=S(=O)(c1ccc2ccccc2c1)N1CCOCC1 | 20.2 (≈ 72.8 µM)
CCn1c(-c2ccc[nH]c2=O)nc2ccccc21 | > 35.9
CCN1C(=O)c2cccc3c(N)ccc1c23 | > 31.8
COc1ccc(-c2cc(C(F)(F)F)c(C#N)c(=O)[nH]2)cc1 | 21.2 (≈ 72.1 µM)
CC(C)N1CCNCC1.Cl | 23.1
O=S(=O)(CCN1CCSCC1)c1ccc(Cl)cc1 | 41.3 (≈ 135 µM)
N#CCn1cnc2c(oc3ccccc32)c1=O | > 33.8
COCC(=O)Nc1ccccc1-c1ccccc1 | > 36.2
Cc1c(CC(=O)Nc2ccc(Cl)cc2)sc2ccc(Cl)cc12 | < 0.8

SMILES | solubility kinetic [µg/mL]
Cc1cccc(NC(=O)CCN2C(=O)c3ccccc3C2=O)c1 | > 46.3
O=C(O)c1cccnc1 | > 18.5
COc1ccc2cc[nH]c2c1 | 15.3 (≈ 104 µM)
O=C(O)C1Nc2ccc(Br)cc2C2C=CCC12 (stereo not given) | 43.6 (≈ 148 µM)
Cn1c(O)c(C=Nc2ccc(Br)cc2)sc1=O | < 0.3
O=C(NC1CCCCC1)c1cccnc1Sc1ccccc1 | 11.2 (≈ 35.8 µM)
Cc1ccc(Cl)cc1Nc1nc(-c2cccnc2)cs1 | 0.2 (≈ 0.663 µM)
S=c1[nH]nc(Nc2ccccc2Cl)s1 | > 36.6
CC1CCN(CC(=O)N2CCN(c3ccccc3)CC2)CC1 | 40.8 (≈ 135 µM)
Cc1cc(C)nc(N2C(=O)CC(Cc3ccc(Cl)cc3)C2=O)n1 (stereo not given) | > 49.5
O=C(N1CCN(S(=O)(=O)c2ccc(Cl)cc2)CC1)n1ccnc1 | 52.8 (≈ 149 µM)
O=S(=O)(Nc1ccon1)c1cc(Cl)ccc1Cl | 43.3 (≈ 148 µM)
Cc1ccsc1/C=N/Nc1ncnc2nc[nH]c12 | > 38.7
COc1ccccc1CC(=O)Nc1ccc2c(C)cc(=O)oc2c1 | 3.6 (≈ 11.1 µM)
c1csc(-c2nc(CN3CCSCC3)cs2)c1 | 32.8 (≈ 116 µM)
CCn1c(=O)n(CC)c2cc([N+](=O)[O-])c(N3CCNCC3)cc21 | > 47.9
COC(=O)c1sccc1NC(=O)c1c(Cl)cccc1Cl | 0.7 (≈ 2.12 µM)
C[N+](C)(C)CCOc1ccc([N+](=O)[O-])cc1.[Br-] | > 45.8
CC(=O)NCCCc1nc2ccccc2n1Cc1ccccc1F | 48.6 (≈ 149 µM)
CC(SCc1ccccc1)C(=O)Nc1ccccc1F (stereo not given) | 35.1 (≈ 121 µM)
COc1ccc(C(=O)C2CCN(CC(=O)Nc3ccccc3F)CC2)cc1 | 4.5 (≈ 12.1 µM)

The remaining lines, values ahead:

solubility kinetic [µg/mL] | SMILES
< 0.4 | O=C(NC1=NCCS1)c1ccccc1OCc1ccc(F)cc1
4.6 (≈ 14.8 µM) | CCOc1ccc(C(=O)CCC(=O)Nc2ccccc2C)cc1
33.5 (≈ 125 µM) | COC(=O)c1ccc2nc(-c3cccc(N)c3)cn2c1
< 0.6 | CCOC(=O)c1c(C)nc(C)c2c(=O)oc3ccccc3c12
1.6 (≈ 3.63 µM) | Cc1ccnc(NS(=O)(=O)c2ccc(NC(=O)c3oc4ccc(F)cc4c3C)cc2)n1
2.9 (≈ 10.8 µM) | COc1cccc(-c2onc3ccc(C(C)=O)cc23)c1
60.2 (≈ 130 µM) | Cc1ccc(S(=O)(=O)N2CCOCC2)cc1C(=O)OCC(=O)NCCc1ccc(F)cc1
10.6 (≈ 33.1 µM) | CC(=O)c1ccc(NC(=S)Nc2cccc3ccccc23)cc1
> 52.1 | CCOc1ccc(NC(=O)CCS(=O)(=O)c2ccc(C)cc2)cc1
4.8 (≈ 16.4 µM) | COc1ccc(C(=O)NC(=S)NC2CCCCC2)cc1
> 48.4 | COc1cc(CNC(C)(C)C)ccc1OCC(=O)NC(C)(C)C
40.4 (≈ 134 µM) | COCC(=O)Nc1c(C(=O)N2CCCC2)oc2ccccc12
3.1 (≈ 8.87 µM) | C=CCNC(=S)Nc1nc2c(cc1C(=O)OCC)COC(C)(C)C2
> 49.4 | Cc1nc(C)c(/C(O)=C\c2nc3ccc([N+](=O)[O-])cc3oc2=O)o1
> 36.1 | CC1(C)Cc2nc(Cl)c(C(N)=O)cc2CO1
29.5 (≈ 112 µM) | CCOC(=O)c1c2c([nH]c(=S)c1C#N)CCCC2
11.4 (≈ 26 µM) | Cc1ccc(S(=O)(=O)N[C@H](C(=O)OCC(=O)NC(=O)C2CCCCC2)C(C)C)cc1
0.6 (≈ 1.85 µM) | Cc1ccnc(N2CCCC(C(=O)Nc3cccc(C)c3C)C2)n1 (stereo not given)
